Experimental data taken from US5183821A, “Method for treating leukemias using N-(2-dimethylaminoethyl)-3-amino-1,8-naphthalimide for treating leukemias and solid tumors” (priority 1991, dated 1993).
Converted amounts (≈) assume the structure as drawn. “Also recorded” adds a separate entry of the source.

Experiments:
HeLa cells = settings: cytotoxic activity in vitro, monolayer; cited from earlier work
Fischer 344 rats = assay: Single dose rat toxicity study; assay type: in vivo; settings: for toxicity summary, rats: single dose i.v. (X1)
Method: Preclinical toxicity studies of BIDA were completed in CD2F1 Mice, Fischer 344 rats and beagle dogs (4). The animals were injected IV with a single bolus or daily for five days.
A preclinical toxicology study of benzisoquinolinedione (NSC-308847) was done at Springborn Institute for Bioresearch, Inc. using CD2 F1 mice, Fischer 344 rats and beagle dogs. Animals were injected intravenously on a single dose (X1) or five daily dose (X5) regimen. Bulk drug was titrated with 0.5N HCl to form a salt solution of benzisoquinolinedione at a pH of 5.0-6.5. Sterile 0.9% saline was used for diluting the dosing solutions and was used for the vehicle control animals.
The following summarizes the major organ toxicities resulting from IV administration of benzisoquinolinedione to rats.

Colon 38 [1] = assay: NCI screen, Colon 38, subcutaneous (summary); assay type: in vivo, Mouse; settings: for Antitumor activity in words: colon 38
Text: The activity of the compound has been evaluated by experiments carried out under the auspices of the Division of Cancer Treatment, National Cancer Institute, employing techniques considered to be reliable indicators of chemotherapeutic utility in the treatment of forms of cancer in human patients. The details of the methodology employed in the reported experiments may be determined with reference to established NCI screening methods.
In the experiments conducted by the NCI, evaluation of activity is made on the basis of appropriate parameters, such as median survival time (MST) or change in average tumor diameter (CATD)in ocular micrometer units (OMU).

[2] = assay type: physicochemical
Text: (§1) Stability: The reconstituted solution is stable for 14 days at room temperature. When further diluted 200-fold with normal saline the drug remains stable for 14 days at both room and refrigeration temperatures. The reconstituted solution is not stable when further diluted with 5% dextrose in water so this vehicle will not be used for infusions of the drug. Storage: The intact vials should be stored under refrigeration.
as §1, with “saline the drugs remains stable” for “saline the drug remains stable”

L-1210 Lymphoid leukemia [3] = assay: Experiment 8: L-1210 s.c., 10^6 cells, acid diluted with saline, female; assay type: in vivo, Mouse CD2 F (CDF1)
Text: (§2) Tumor: L-1210 Lymphoid leukemia
(§3) Inoculum Site: Subcutaneous
Vehicle: Acid diluted with saline
Treatment schedule (relative to tumor inoculation day) daily on days 1-9
(§4) Day of evaluation (relative to tumor inoculation day): 30
(§5) Parameter: Median survival time (MST) in days
(§6) NCI minimal activity criteria: Percent T/C≥125
(§7) Percent T/C: Ratio of test (T) evaluation to control (C) evaluation expressed as a percentage

Colon 38 [4] = assay: Experiment 13: Colon 38 s.c., saline with Tween-80, male; assay type: in vivo, Mouse B6 D2 F1 (BDF1)
Text: Host: Mouse B6 D2 F1 (BDF1)
as §3
Vehicle: Saline with Tween-80
Treatment schedule (relative to tumor inoculation day): Days 2 and 9
Day of evaluation (relative to tumor inoculation day): 20
Parameter: Median tumor weight (MTW) estimated from tumor diameter
NCI minimal activity criteria: Percent T/C≤42
as §7

[5] = Blood compatibility testing, canine; settings: 50 mg/ml, 1:1
L-1210 Lymphoid leukemia [6] = assay: Experiment 4: L-1210 s.c., 10^5 cells, acid diluted with saline, male; assay type: in vivo, Mouse CD2 F1 (CDF1)
Text: (§8) Host: Mouse CD2 F1 (CDF1)
as §2, §3
Vehicle: acid diluted with saline
(§9) Treatment schedule (relative to tumor inoculation day): daily on days 1-9
as §4, §5, §6, §7

L-1210 Lymphoid leukemia [7] = assay: Experiment 1: L-1210 i.p., 10^4 cells, acid diluted with saline, male; assay type: in vivo, Mouse CD2 F1 (CDF1)
Text: as §8, §2
Inoculum Site: intraperitoneal
Vehicle: Acid Diluted with saline
as §9, §4, §5, §6, §7

[8] = 15.0 mg/kg, listed as benzisoquinolinedione

## CN(C)CCN1C(=O)c2cccc3cc(N)cc(c23)C1=O [Example 9, 1H-Benz[de]isoquinoline-1,3(2H)-dione, 5-amino-2-[2-(dimethylamino)ethyl]]
HeLa cells
  ID50 in HeLa cells: 2.5 mg/L (≈ 8.82 µM)
Fischer 344 rats; 15.0 mg/kg (1/2MELD10), single
  Mortality / lethality: 0/20
Fischer 344 rats; [8]
  Hematologic findings: Mild decreases in leukocytes were seen in males on day 4; also recorded: mild decreases in reticulocytes were seen in females
  Microscopic hematologic lesions: mild diffuse thymic atrophy in three male rats on day 4; also recorded: No hematologic lesions were seen in either sex on day 29
Fischer 344 rats; 30.0 mg/kg, day 4 and day 29, listed as benzisoquinolinedione
  Microscopic hematologic lesions: moderate to marked diffuse bone marrow atrophy and mild to moderate diffuse thymic atrophy; also recorded: by day 29, no hematologic lesions were found
Fischer 344 rats; 30.0 mg/kg, day 29
  Reproductive findings: All five long-term male rats showed decreased testicular weights
Fischer 344 rats; 30.0 mg/kg, listed as benzisoquinolinedione
  Hematologic findings: Mild decreases in hemoglobin, hematocrit and red blood cells were seen in females on days 4 and 8, but not in males; also recorded: moderate decreases in reticulocytes and leukocytes on day 4 with moderate increases following on day 8
Fischer 344 rats; 30.0 mg/kg, males, day 29
  mild diffuse testicular atrophy, incidence: four of five
Fischer 344 rats; 35.0 mg/kg (MELD50), single
  Mortality / lethality: 0/20
Fischer 344 rats; 35.0 mg/kg, day 4
  Microscopic hematologic lesions: marked to severe diffuse bone marrow atrophy and mild to moderate diffuse thymic atrophy
Fischer 344 rats; 35.0 mg/kg, day 29, listed as benzisoquinolinedione
  Reproductive findings: All five male rats showed decreased testicular weights and mild diffuse testicular atrophy; also recorded: No reproductive lesions were seen in females
Fischer 344 rats; 35.0 mg/kg, listed as benzisoquinolinedione
  Hematologic findings: Mild decreases in hemoglobin, hematocrit and red blood cells; also recorded: moderate decreases in reticulocytes in both sexes on day 4, followed by moderate increases on day 8; also recorded: Leukopenia (both lymphocytes and neutrophils); also recorded: Both sexes were comparable to controls on days 22 and 29
Fischer 344 rats; MELD10, single, 30.0 mg/kg in text, 20.00 in Table 4
  Mortality / lethality: 0/20
Fischer 344 rats; listed as BIDA
  toxicity summary, rats: reproductive system toxicity was seen at doses of MELD 10 and higher; also recorded: decreased testicular weights and mild diffuse testicular atrophy
Fischer 344 rats; listed as benzisoquinolinedione
  toxicity summary, rats: toxic on both schedules (X1, X5) to the hematopoietic system and to the male reproductive system
Colon 38 [1]; 64 mg/kg i.p.
  T/C, growth of s.c. implanted colon 38 tumor: 17%
Colon 38 [1]; Mus musculus, 64 mg/kg i.p., read-out: inhibition of growth of s.c. implanted colon 38 tumor
  inhibition at 64 mg/kg: 83%
Colon 38 [1]; listed as BIDA
  Antitumor activity in words: not active
Colon 38 [1]; listed as the compound
  Antitumor activity in words: at least a reproducible minimal activity; also recorded: active
Colon 38 [1]; median tumor weight, 25 tests, full wrapped cell: Reproducible minimal activity
  Table II evaluation: Reproducible minimal
[2]
  stability of reconstituted solution: 14 days
  stability, diluted 200-fold with normal saline: 14 days
  stability, diluted with 5% dextrose in water: not stable
L-1210 Lymphoid leukemia [3]; 5.00 mg/kg i.p.
  Median survival time (MST): 9.0 days
  Percent T/C: 105%
L-1210 Lymphoid leukemia [3]; 7.00 mg/kg i.p.
  Median survival time (MST): 9.8 days
  Percent T/C: 110%
L-1210 Lymphoid leukemia [3]; 10.00 mg/kg i.p.
  Median survival time (MST): 10.7 days
  Percent T/C: 125%
L-1210 Lymphoid leukemia [3]; 16.00 mg/kg i.p.
  Median survival time (MST): 12.3 days
  Percent T/C: 144%
L-1210 Lymphoid leukemia [3]; 24.00 mg/kg i.p.
  Median survival time (MST): 31.3 days
  Percent T/C: 132%
Colon 38 [4]; 16.00 mg/kg i.p.
  Median tumor weight (MTW): 2474
  Percent T/C: 102%
Colon 38 [4]; 32.00 mg/kg i.p.
  Median tumor weight (MTW): 1146
  Percent T/C: 47%
Colon 38 [4]; 64.00 mg/kg i.p.
  Median tumor weight (MTW): 700
  Percent T/C: 29%
Colon 38 [4]; 128.00 mg/kg i.p.
  Median tumor weight (MTW): Deaths before evaluation
[5]; canine heparinized plasma
  blood compatibility: compatibility
[5]; canine serum
  blood compatibility: compatibility
L-1210 Lymphoid leukemia [6]; 0.00 mg/kg [sic] i.p.
  Median survival time (MST): 8.9 days
  Percent T/C: 101%
L-1210 Lymphoid leukemia [6]; 5.00 mg/kg i.p.
  Median survival time (MST): 10.4 days
  Percent T/C: 118%
L-1210 Lymphoid leukemia [6]; 7.00 mg/kg i.p.
  Median survival time (MST): 10.7 days
  Percent T/C: 121%
L-1210 Lymphoid leukemia [6]; 10.00 mg/kg i.p.
  Median survival time (MST): 12.0 days
  Percent T/C: 136%
L-1210 Lymphoid leukemia [6]; 16.00 mg/kg i.p.
  Median survival time (MST): 15.3 days
  Percent T/C: 173%
L-1210 Lymphoid leukemia [6]; 24.00 mg/kg i.p.
  Median survival time (MST): 11.0 days
  Percent T/C: 125%
L-1210 Lymphoid leukemia [7]; 2.00 mg/kg i.p.
  Median survival time (MST): 9.9 days
  Percent T/C: 107%
L-1210 Lymphoid leukemia [7]; 4.00 mg/kg i.p.
  Median survival time (MST): 10.4 days
  Percent T/C: 113%
L-1210 Lymphoid leukemia [7]; 8.00 mg/kg i.p.
  Median survival time (MST): 12.3 days
  Percent T/C: 133%
L-1210 Lymphoid leukemia [7]; 16.00 mg/kg i.p.
  Median survival time (MST): 20.0 days
  Percent T/C: 217%
L-1210 Lymphoid leukemia [7]; 32.00 mg/kg i.p.
  Median survival time (MST): 8.8 days
  Percent T/C: 95%
